Experimental data from US8604214B2, “Compounds for alleviation, prevention or treatment of osteoporosis, the preparation thereof and pharmaceutical composition comprising the same” (Ewha University-Industry Collaboration Foundation, priority 2011, dated 2013).

Experiments:
Assay type in all cases: cell-based, ICR mice
[1] = tested on: bone marrow cells (BMM), TRAP-positive multinucleated osteoclasts; assay: RANKL-induced osteoclast differentiation of BMM, TRAP staining; settings: Mus musculus, 96 h, RANKL and 30 ng/ml M-CSF, 4 days, TRAP-positive cells having 3 or more nuclei, read-out: IC50 (μM), multinucleated osteoclast formation
Text: ICR mice (6˜9 weeks old, male) were sacrificed by cervical dislocation, followed by immersion in 70% ethanol for sterilization. Dissection was made on the tibia skin to remove the muscle attached thereto. The tibia was excised by cutting the distal tibia and dislocating the patella. The tibia were then cut slightly at their opposite ends. A 25-gauge (G) syringe needle was inserted into the bone at one end and α-MEM (Minimum Essential Medium) was infused into the bone through the needle to collect bone marrow cells.
After centrifugation, a cell pellet was suspended in α-MEM and red blood cells in the suspension were removed with two volumes of Gey's solution. After centrifugation, the cell pellet was resuspended in α-MEM supplemented with 10% FBS.
After a primary culture of the bone marrow cells, the bone marrow cells were incubated overnight in 10 ng/ml M-CSF (macrophage colony-stimulating factor) and then for an additional three days in 30 ng/ml M-CSF. After Adhesive cells (BMM) were recovered, ng/ml RANKL and 30 ng/ml M-CSF or ng/ml RANKL, 30 ng/ml M-CSF in combination with various concentrations of the K11, K14, K17, K18, K19, or K22 compound were added to each well plated at a density of 1×10^5 cells/well and each well was incubated for 4 days. The incubated to cells were fixed for 10 min with 10% formalin and then re-fixed for 1 min with ethanol/acetone (1:1(v/v)). The cells were stained for TRAP (tartrate-resistant acid phosphatase). TRAP-positive cells having 3 or more nuclei were evaluated as multinucleated osteoclasts by observation under a microscope, and their IC50 values are given in the following table 1.

[2] = tested on: osteoclast-specific marker genes (calcitonin receptor, cathepsin K, αv-integrin, β3-integrin, ATP6v0d2, DC-STAMP); assay: RT-PCR of osteoclast-specific marker genes; settings: R+K11: 50 ng/ml RANKL following pretreatment with 10 μM K11 for 30 minutes, compared to RANKL; FIG. 3A
Method: Total RNA isolation was conducted using Easy-blue (Intron Biochemistry, Inc.). cDNA was synthesized from […] of the total RNA using an oligodT primer and 10 mM dNTP, 1 unit of an RNase inhibitor and 4 units of Scrip reverse transcriptase (Fermentas, Life science) at 42° C. for 60 min, followed by termination by heating at 70° C. for 10 min.
(§1) In FIG. 3, Veh represents a control group treated with DMSO, RANKL represents a group treated with 50 ng/ml RANKL, K11 represents a group treated with 10 μM K11, R+K11 represents a group treated with 50 ng/ml RANKL following pretreatment with 10 μM K11 for 30 minutes, while * represents p<0.05 compared to Veh and ** represents *: p<0.05 compared to RANKL. N.D.=Not Detectable. FIG. 3A is graphs showing analyzed results of reverse transcription polymerase chain reaction (RT-PCR) performed for measurement of expression levels of osteoclast-specific marker genes (calcitonin receptor, cathepsin K, αv-integrin, β3-integrin, ATP6v0d2, DC-STAMP), FIG. 3B is a view of result of pits formed on dentine slices by bone absorption according to treatment with K11 compound and FIG. 3C is a graph showing analyzed results of the experiment results obtained in FIG. 3B. […]

[3] = tested on: BMM cells on dentine slices (bone resorption of osteoclasts); assay: Pit formation assay on dentine slices; settings: 50 ng/ml RANKL, 30 ng/ml M-CSF and 10 μM K11, six days, compared to RANKL; FIGS. 3B and 3C
Method: BMM cells were cultured for six days on dentine slices in 50 ng/ml RANKL and 30 ng/ml M-CSF, or 50 ng/ml RANKL 30 ng/ml and 10 μM K11 compound. After the cells on surfaces of dentine slice were washed, pits were stained with toluidin blue (J. T. Baker, UK, 1 μg/ml). Pits formed on the dentine slices by bone absorption were observed under a microscope and were analyzed.
as §1

NFATc1 = assay: Western blot analysis of NFATc1 expression; settings: 200 ng/ml RANKL following pretreatment with 10 μM K11 for 30 minutes; FIG. 4
Method: (§2) After BMM cells treated with reagent were incubated for a predetermined period of time, the BMM cell were lysed in a lysis buffer and centrifuged. Following normalization to BSA (bovine serum albumin) standards, protein concentrations were quantitatively analyzed using a protein assay kit (Bio-Rad). Twenty micrograms of the protein was denatured and separated by SDS-PAGE (poly acrylamide gel electrophoresis) and transferred for 1 hour and 45 minutes onto a PVDF membrane in 80 V. Subsequently, the membrane was blocked with PBST (Phosphate Buffered Saline Tween-20) containing 5% skim milk, followed by reaction with anti-NFATc1 (Nuclear factor of activated T-cells cytoplasmic 1, 1:200, Santa Cruz) antibody or anti-c-fos (1:1000, Cell Signaling) antibody as a primary antibody, respectively (1:200 ratio herein indicated means dilution of 200 times). After the membrane was washed five times with TBST and reacted with HRP (horseradish peroxidase)-conjugated secondary antibody, the protein was visualized using ECL Advance (Amersham Co.) and analyzed.
(§3) In FIGS. 4 and 5, veh represents a control group treated with DMSO, RANKL represents a group treated with 200 ng/ml RANKL, R+K11 represents a group treated with 200 ng/ml RANKL following pretreatment with 10 μM K11 for 30 minutes, while * represents p<0.05 compared to Veh and ** represents *: p<0.05 compared to RANKL.

c-fos = assay: Western blot analysis of c-fos expression; settings: 200 ng/ml RANKL following pretreatment with 10 μM K11 for 30 minutes; FIG. 5
Method: as §2, §3

IC50 [1] [µM] | Structure (SMILES) | further results
23.4 | COc1ccccc1OCCCCCOc1nc2ccccc2s1 [Compound K17, 2-(5-(2-Methoxyphenoxy)pentyloxy)benzo[d]thiazole] | 
18.4 | Fc1ccccc1OCCCCCOc1nc2ccccc2s1 [Compound K18, 2-(5-(2-Fluorophenoxy)pentyloxy)benzo[d]thiazole] | 
1.56 | COc1cc(C(=O)N(C(C)C)C(C)C)ccc1OCCCCCOc1nc2ccccc2s1 [Compound K11, 4-(5-(Benzo[d]thiazol-2-yloxy)pentyloxy)-N,N-diisopropyl-3-methoxybenzamide] | expression levels of osteoclast-specific marker genes [2]: significantly decreased; number of pits on dentine slices [3]: significant reduction; RANKL-induced increase in the expression level of NFATc1 (NFATc1): the effect of RANKL was reduced; RANKL-induced increase in the expression level of c-fos (c-fos): the effect of RANKL was reduced
7.77 | Clc1cccc(OCCCCCOc2nc3ccccc3s2)c1 [Compound K14, 2-(5-(3-chlorophenoxy)pentyloxy)benzo[d]thiazole] | 

Structure (SMILES) | IC50 [1] [µM] | further results
c1ccc(OCCCCOc2nc3ccccc3s2)cc1 [Compound K19, 2-(4-Phenoxybutoxy)benzo[d]thiazole] | 17.7 | 
COc1cc(C(=O)N(C(C)C)C(C)C)ccc1OCCCCOc1nc2ccccc2s1 [Compound K22, 4-(4-(Benzo[d]thiazol-2-yloxy)butoxy)-N,N-diisopropyl-3-methoxy Benzamide] | 2.2 | 
